Source: patent US12398098B2, “Waterborne crosslinker composition” (priority 2020, dated 2025)
Like-named read-outs stand apart in the source and are kept apart here.

How the values were obtained:
[1] = test system: mouse embryonic stem (mES) reporter cell lines
Rtkn [2] = settings: mouse
Bscl2 = assay: ToxTracker genotoxicity assay, Bscl2-GFP reporter
Rtkn [3] = assay: ToxTracker genotoxicity assay, Rtkn-GFP reporter
[4] = With S9 rat liver extract, at 50% cytotoxicity, 3 h exposure and 24 h recovery
[5] = With S9 rat liver extract, at 25% cytotoxicity, 3 h exposure and 24 h recovery
[6] = Without S9 rat liver extract, at 10% cytotoxicity, 24 h exposure
[7] = Without S9 rat liver extract, at 25% cytotoxicity, 24 h exposure
[8] = Without S9 rat liver extract, at 50% cytotoxicity, 24 h exposure
[9] = With S9 rat liver extract, at 10% cytotoxicity, 3 h exposure and 24 h recovery
[10] = Bscl2 and Rtkn, absence and presence of S9

SMILES	Genotoxicity test result (overall) [1]	Rtkn GFP reporter induction level (Rtkn [2])	Bscl 2 GFP reporter induction level (Bscl2; [4])	Rtkn GFP reporter induction level (Rtkn [3]; [5])	Rtkn GFP reporter induction level (Rtkn [3]; [4])	Rtkn GFP reporter induction level (Rtkn [3]; [6])	Rtkn GFP reporter induction level (Rtkn [3]; [7])	Rtkn GFP reporter induction level (Rtkn [3]; [8])	Bscl 2 GFP reporter induction level (Bscl2; [9])	Bscl 2 GFP reporter induction level (Bscl2; [5])	Bscl 2 GFP reporter induction level (Bscl2; [6])	Bscl 2 GFP reporter induction level (Bscl2; [7])	Bscl 2 GFP reporter induction level (Bscl2; [8])	Rtkn GFP reporter induction level (Rtkn [3]; [9])	Genotoxicity test result (overall) [1, 10]
CCC(COC(=O)CCN1CC1C)(COC(=O)CCN1CC1C)COC(=O)CCN1CC1C (centres unmarked) [Comp. Ex. 1, trimethylolpropane tris(2-methyl aziridinepropionate), reference compound]	genotoxic														
CCCCOCC(CN1CC1C)OC(=O)NCCCCCCn1c(=O)n(CCCCCCNC(=O)OC(COCCCC)CN2CC2C)c(=O)n(CCCCCCNC(=O)OC(COCCCC)CN2CC2C)c1=O (centres unmarked) [Composition 1]	non-genotoxic	0.9	0.9	0.8	0.6	0.8	0.8	0.6							
CC(CN1CC1C)OC(=O)NCCCCCCn1c(=O)n(CCCCCCNC(=O)OC(C)CN2CC2C)c(=O)n(CCCCCCNC(=O)OC(C)CN2CC2C)c1=O (centres unmarked) [Composition 16]	non-genotoxic		1.2	1.1	0.9	1.2	1.2	1.4	1.2	1.3	1.2	1.3	1.3	1.2	
CCCCC(CC)COCC(CN1CC1C)OC(=O)NCCCCCCn1c(=O)n(CCCCCCNC(=O)OC(COCC(CC)CCCC)CN2CC2C)c(=O)n(CCCCCCNC(=O)OC(COCC(CC)CCCC)CN2CC2C)c1=O (centres unmarked) [Composition 23]															non-genotoxic
CCCCCCCCCC(=O)OCC(CN1CC1C)OC(=O)NCCCCCCn1c(=O)n(CCCCCCNC(=O)OC(COC(=O)CCCCCCCCC)CN2CC2C)c(=O)n(CCCCCCNC(=O)OC(COC(=O)CCCCCCCCC)CN2CC2C)c1=O (centres unmarked) [Composition 25-2]			1.1	1.1	1.2	1.1	1.2	1.0	1.0	1.1	1.1	1.2	1.0	1.1	non-genotoxic
CCCCOCC(CN1CC1C)OC(=O)NCCCCCC/N=c1\oc(=O)n(CCCCCCNC(=O)OC(COCCCC)CN2CC2C)c(=O)n1CCCCCCNC(=O)OC(COCCCC)CN1CC1C (centres unmarked) [Composition 27]															non-genotoxic
CCCCOCC(CN1CC1(C)C)OC(=O)NCCCCCCn1c(=O)n(CCCCCCNC(=O)OC(COCCCC)CN2CC2(C)C)c(=O)n(CCCCCCNC(=O)OC(COCCCC)CN2CC2(C)C)c1=O (centres unmarked) [Compound. 15]	non-genotoxic		1.1	1.2	1.3	1.2	1.2	1.2	1.1	1.1	1.2	1.2	1.1	1.2	
